A short description of this data set: solvent given as SMILES.

In the Deep4Chem optical property database one finds absorption maximum data, which are given here for 46 compounds.

The structures appear in SMILES notation.

For the setting “in Cc1ccccc1”, `N#Cc1ccccc1N1c2ccccc2C(c2ccccc2)(c2ccccc2)c2ccccc21` returned an absorption maximum of 356 nm.

Take `CC1(C)CC(/C=C/c2ccc(-n3cccn3)cc2)=CC(=C(C#N)C#N)C1`: the absorption maximum is, setting by setting: (in C1CCOC1) 405 nm; (in CC#N) 397 nm; (in CCO) 404 nm; (in CCOC(C)=O) 403 nm; (in ClCCl) 404 nm; (in c1ccccc1) 407 nm.

In the case of `COc1ccccc1C1=C2C=CC(=[N+](C)C)C=C2[Si](C)(C)c2cc(N(C)C)ccc21`, under “in O”, the absorption maximum came to 649 nm.

For the setting “in C1CCOC1”, `C(=C(c1ccccc1)c1ccccc1)c1ccc(-c2ccc(C=C(c3ccccc3)c3ccccc3)cc2)cc1` gave an absorption maximum of 351 nm.

In the case of `COc1ccc2c(c1)-c1nc(-c3ccccc3)c3ccccc3[n+]1[B-](F)(F)O2`, for the setting “in Cc1ccccc1”, the absorption maximum turned out to be 434 nm.

In turn, `COc1ccc2c(C#N)cc3ccc4cc(C#N)c5ccc(OC)cc5c4c3c2c1` registered an absorption maximum (in ClC(Cl)Cl) of 422 nm.

In the case of `C(=C\c1c[nH]c2ccccc12)/c1cc[n+]2ccc(/C=C/c3c[nH]c4ccccc34)cc2c1`, the absorption maximum (in CO) was found to be 489 nm.

`CC(C)=O` gave an absorption maximum (in CCCCCC) of 279 nm.

Take `CCn1c2c(-c3ccc(-c4cccs4)s3)cc(C(C)(C)C)cc2c2cc(C(C)(C)C)cc(-c3ccc(-c4cccs4)s3)c21`: the absorption maximum (in ClCCl) was found to be 360 nm.

Consider `COc1cc(C2CC(=O)Oc3c2c2nc4ccc(C)cc4nc2c2ccccc32)cc(OC)c1OC` (centres undefined), for which the absorption maximum (in ClC(Cl)Cl) was determined as 412 nm.

Where the note is “in c1ccccc1”, `Nc1ccc2nc(-c3ccccc3)c(=O)oc2c1` yielded an absorption maximum of 402 nm.

For `CN1c2cc3nc4cc(Cl)c(Cl)cc4nc3cc2N(C)C1(C)C`, the absorption maximum (in CCO) was 471 nm.

In the case of `COC(=O)c1ccc(/C=C2\C=C(c3ccccc3)NC2=O)cc1`, the absorption maximum (in C1COCCO1) is given as 437 nm.

Where the note is “in CN(C)C=O”, `CCN(CC)c1ccc(/C=C2\CC/C(=C\c3ccc(N(c4ccccc4)c4ccc(/C=C5\CC/C(=C\c6ccc(N(CC)CC)cc6)C5=C(C#N)C#N)cc4)cc3)C2=C(C#N)C#N)cc1` gave an absorption maximum of 592 nm.

Consider `O=C(O)CCCCCn1c2ccccc2c(=O)c2cc(F)ccc21`, for which the absorption maximum (in O) came out at 420 nm.

Consider `CCCCC(CC)Cn1c2cc(C#N)ccc2c2ccc(C#Cc3ccc4ccc5c(C#Cc6ccc7c8ccc(C#N)cc8n(CC(CC)CCCC)c7c6)ccc6ccc3c4c65)cc21` (centres undefined), for which the absorption maximum (in ClCCl) was 385 nm.

Consider `Fc1ccc(C2=[N+]3C(=Nc4c5ccccc5c(-c5ccc(F)cc5)n4[B-]3(F)F)c3ccccc32)cc1`, for which the absorption maximum (in ClCCl) stood at 713 nm.

`CCOC(=O)COc1ccc(/C=C/C2=C3c4ccccc4C(c4[nH]c(C)cc4C)=[N+]3[B-](F)(F)n3c(C)cc(C)c32)cc1`: the absorption maximum runs as follows: (in C1CCOC1) 608 nm; (in CC#N) 602 nm; (in CCCCCC) 608 nm; (in CO) 603 nm; (in Cc1ccccc1) 614 nm; (in ClCCl) 608 nm.

`CCCCC1(c2ccccc2)Nc2c(-c3ccc(N(C)C)cc3)ccc(-c3ccc(N(C)C)cc3)c2N=C1c1ccccc1` (centres undefined) registered an absorption maximum (in ClC(Cl)Cl) of 371 nm.

Turning to `c1csc(-c2ccc(-c3cccs3)s2)c1`, the absorption maximum reads like this: (in CC#N) 351 nm; (in ClCCl) 355 nm.

As to `COc1cc(C2=c3c(c4ccc(C(C)(C)C)cc4c4cc(C(C)(C)C)ccc34)=[N+]3C2=Nc2c(-c4cc(OC)c(OC)c(OC)c4)c4c5ccc(C(C)(C)C)cc5c5cc(C(C)(C)C)ccc5c4n2[B-]3(F)F)cc(OC)c1OC`, for the setting “in Cc1ccccc1”, the absorption maximum turned out to be 787 nm.

In the case of `CC(C)[Si](C#Cc1ccc(C#Cc2c3cc4ccccc4cc3c(C#C[Si](C(C)C)(C(C)C)C(C)C)c3cc4ccccc4cc23)cc1)(C(C)C)C(C)C`, the absorption maximum (in ClCCl) was 659 nm.

Take `O=C1c2ccccc2-c2ccc(Nc3nc(Cl)nc(Cl)n3)c3cccc1c23`: the absorption maximum reads like this: (in CC(C)=O) 405.02 nm; (in CC(C)O) 411.86 nm; (in CCCCOCCCC) 400.96 nm; (in CCOC(C)=O) 403.06 nm; (in CO) 410 nm; (in Cc1ccccc1) 411.02 nm. Besides, the absorption maximum (in Clc1ccccc1) amounted to 410 nm and the absorption maximum (in O=C1CCCCC1) is 410 nm.

On to `CCN(C(C)=O)c1cc2c(cc1C)C(c1ccccc1C(=O)O)=C1CCCC(/C=C/C3=[N+](C)c4ccc5ccccc5c4C3(C)C)=C1O2`, for which the absorption maximum (in CCO) turned out to be 678 nm.

As for `CCCCCCCCCCCCCCCCN(CCCCCCCCCCCCCCCC)c1ccc(/C=C/c2cc[n+](Cc3cc(C[n+]4ccc(/C=C/c5ccc(N(CCCCCCCCCCCCCCCC)CCCCCCCCCCCCCCCC)cc5)cc4)cc(C[n+]4ccc(/C=C/c5ccc(N(CCCCCCCCCCCCCCCC)CCCCCCCCCCCCCCCC)cc5)cc4)c3)cc2)cc1`, the absorption maximum is, setting by setting: (in C1COCCO1) 482 nm; (in CC(C)O) 506 nm; (in CCCCCC) 481 nm; (in CCCCCCCCO) 498 nm; (in CCCCO) 507 nm; (in CCCO) 508 nm. The compound further displayed an absorption maximum (in CCO) of 508 nm; an absorption maximum (in CO) of 509 nm; an absorption maximum (in CS(C)=O) of 486 nm; an absorption maximum (in Cc1ccc(C)cc1) of 483 nm; an absorption maximum (in Cc1ccccc1) of 483 nm; an absorption maximum (in ClC(Cl)Cl) of 514 nm. Further, the absorption maximum is, setting by setting: (in ClCCl) 516 nm; (in c1ccccc1) 484 nm.

For the compound `O=C(O)c1cc2c(ccc3ccccc32)oc1=O`, the absorption maximum is, setting by setting: (in C1COCCO1) 372 nm; (in CC#N) 376 nm; (in CCCCO) 372 nm; (in CCO) 363 nm; (in CO) 364 nm; (in O) 376 nm.

Consider `COc1nnc(Cl)nn1`, for which the absorption maximum runs as follows: (in ClCCl) 520 nm; (in OCC(F)(F)F) 518 nm.

Take `CCCCC(CC)CN1C(=O)c2cc(Oc3ccc(C(C)(C)C)cc3)c3c4c(Cl)cc5c6c(cc(Cl)c(c7c(Oc8ccc(C(C)(C)C)cc8)cc(c2c37)C1=O)c64)C(=O)N(c1c(C(C)C)cccc1C(C)C)C5=O` (centres undefined): for the setting “in Cc1ccccc1”, the absorption maximum was found to be 560 nm.

`Cc1ccc2c(c1)C(C)(C)c1cc(C)ccc1N2c1ccc2c(c1)C(C)(C)c1cc(N3c4ccc(C)cc4C(C)(C)c4cc(C)ccc43)ccc1S2(=O)=O` returned an absorption maximum (in ClCCl) of 370 nm.

As for `CC(C)[Si](C#Cc1c2ccccc2c(C#Cc2c3ccccc3c(C#Cc3c4ccccc4c(C#Cc4c5ccccc5c(C#Cc5c6ccccc6c(C#Cc6c7ccccc7c(C#C[Si](C(C)C)(C(C)C)C(C)C)c7ccccc67)c6ccccc56)c5ccccc45)c4ccccc34)c3ccccc23)c2ccccc12)(C(C)C)C(C)C`, under “in Cc1ccccc1”, the absorption maximum was 589 nm.

Where the note is “in O”, `CC[n+]1c(-c2ccccc2)c2cc(NC(N)=[NH2+])ccc2c2ccc(NC(N)=[NH2+])cc21` came in with an absorption maximum of 397 nm.

On to `CC(C)(C)c1ccc(C#Cc2cc3c(C#Cc4ccc(C(C)(C)C)cc4)c(C#Cc4ccc(C(C)(C)C)cc4)c4cc(C#Cc5ccc(C(C)(C)C)cc5)cc5c(C#Cc6ccc(C(C)(C)C)cc6)c(C#Cc6ccc(C(C)(C)C)cc6)c(c2)c3c45)cc1`, for which the absorption maximum (in ClCCl) was 414 nm.

For `O=c1c2cc(I)ccc2nc2n1[B-](F)(F)[n+]1ccccc1-2`, the absorption maximum is given as 345 nm (in CC#N) and 362 nm (in ClCCl).

Compound `c1ccc(-c2nc(-c3ccccc3)nc(-c3ccc(N4c5ccccc5C5(c6ccccc6-c6ccccc65)c5ccccc54)cc3)n2)cc1` had an absorption maximum (in Cc1ccccc1) of 399.05 nm.

Turning to `O=P1(c2ccccc2)C(c2cc(C(F)(F)F)cc(C(F)(F)F)c2)=Cc2c3ccc4cccc5ccc(c6cc(-c7ccc(N(c8ccccc8)c8ccccc8)cc7)n1c26)c3c45` (centres undefined), the absorption maximum stood at 434 nm (in C1CCCCC1); 437 nm (in C1CCOC1); 436 nm (in C1COCCO1); 434 nm (in CC#N); 435 nm (in CC(C)=O); 444 nm (in CO). Further, the absorption maximum by setting is: (in Cc1ccccc1) 441 nm; (in ClC(Cl)Cl) 441 nm; (in ClCCl) 437 nm.

Take `Cc1c(COC(=O)Cc2c[nH]c3ccccc23)n2c(OCC(=O)Cc3c[nH]c4ccccc34)c(C)c(=O)n2c1=O`: the absorption maximum (in CCO) is reported as 382 nm.

`CCCCc1cc2cccc[n+]2[b-]2c(-c3cccc4[b-]3[n+]3ccccc3cc4CCCC)cccc21`: the absorption maximum (in C1CCCCC1) is listed as 446 nm.

As for `CCN(CC)c1ccc2c(c1)oc(=O)c1c(=O)oc3cc([N+](=O)[O-])ccc3c12`, the absorption maximum reads like this: (in CS(C)=O) 498 nm; (in ClCCl) 494 nm.

The compound `COc1cc2c(cc1OC)C1=C[C@H](c3ccccc3)C3(C(C#N)=C(C#N)N1CC2)c1cc(Cl)ccc1-c1ccc(Cl)cc13` displayed an absorption maximum (in ClCCl) of 310 nm.

As to `CN(C)c1ccc(C2=Nc3sc4cc(Cl)ccc4[n+]3[B-](F)(F)O2)cc1`, the absorption maximum is 430 nm (in C1CCOC1); 426 nm (in CC#N); 430 nm (in CC(C)=O); 427 nm (in Cc1ccccc1); 430 nm (in ClCCl).

The compound `CCOC(=O)c1c(-c2cc3ccccc3oc2=O)nn(-c2ccccc2)c1C(=O)OCC` gave an absorption maximum (in ClCCl) of 323 nm.

As to `N#CC(C#N)=Cc1ccc(-c2ccc(O)c(-c3nc4ccccc4s3)c2)s1`, the absorption maximum reads like this: (in ClCCl) 427 nm; (in O) 416 nm.

`C/C(=C\c1ccccc1)c1nc2ccccc2o1`: the absorption maximum (in C1CCCCC1) amounted to 315 nm and the absorption maximum (in CO) worked out at 315 nm.

Take `CCCCCOc1ccc2c(c1)c1ccc3cccc4c5cccc6oc(=O)c2c(c65)c1c34`: under “in C1CCOC1”, the absorption maximum is reported as 426 nm.

Regarding `COc1ccc2c(c1)CCC1=C(c3ccccc3)C3=Nc4c(-c5ccccc5)c5c(n4[B-](F)(F)[N+]3=C12)-c1ccc(OC)cc1CC5`, the absorption maximum (in ClC(Cl)Cl) is recorded as 740 nm.

`FC(F)(F)C(F)(F)C(F)(F)C1=NC2=C(Oc3ccccc3)C=C3c4cc(Oc5ccccc5)c5nc(C(F)(F)C(F)(F)C(F)(F)F)nc6c(Oc7ccccc7)cc(c4c56)=C4C=C(Oc5ccccc5)C(=N1)C2C34` (centres undefined) had an absorption maximum (in C1CCOC1) of 498 nm.
